Measured values reported in ChEMBL document CHEMBL1201862, “PubChem BioAssay data set” (2004).
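Growth conditions: 96-well plates. Treatment: test compound, 48 hours, 5 concentrations. Analysis: linear interpolation between bracketing concentrations; unreached endpoints set to highest concentration. GI50 is the concentration that inhibits growth by half.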 Active and inactive are the calls of the source. No stated cut-off is given here; in the data, active = GI50 up to about 1.1 µM and inactive = higher.

Key:
Assay in all cases: DTP human tumour cell line panel, 48 h
HT-29 = tested on: HT-29
HCT-116 = tested on: HCT-116
SF-295 = tested on: SF-295
A549 = tested on: A549
MOLT-4 = tested on: MOLT-4
NCI-H460 = tested on: NCI-H460
HCC 2998 = tested on: HCC 2998
A498 = tested on: A498
SR = tested on: SR
RXF 393 = tested on: RXF 393
U-251 = tested on: U-251
SNB-19 = tested on: SNB-19
HOP-92 = tested on: HOP-92
NCI-H522 = tested on: NCI-H522
SF-539 = tested on: SF-539
MDA-MB-231 = tested on: MDA-MB-231
Hs-578T = tested on: Hs-578T
NCI/ADR-RES = tested on: NCI/ADR-RES
SK-MEL-28 = tested on: SK-MEL-28
DU-145 = tested on: DU-145

Row | Compound | GI50 (HT-29) | GI50 (HCT-116) | GI50 (SF-295) | GI50 (A549) | GI50 (MOLT-4) | GI50 (NCI-H460) | GI50 (HCC 2998) | GI50 (A498) | GI50 (SR) | GI50 (RXF 393) | GI50 (U-251) | GI50 (SNB-19) | GI50 (HOP-92) | GI50 (NCI-H522) | GI50 (SF-539) | GI50 (MDA-MB-231) | GI50 (Hs-578T) | GI50 (NCI/ADR-RES) | GI50 (SK-MEL-28) | GI50 (DU-145)
1 | Cc1ccc(S(=O)(=O)C(CC(NC=O)S(=O)(=O)c2ccc(C)cc2)NC=O)cc1 (stereo not drawn) | > 100 µM (inactive) | > 100 µM (inactive) | > 100 µM (inactive) | > 100 µM (inactive) | > 100 µM (inactive) | > 100 µM (inactive) | > 100 µM (inactive) | > 100 µM (inactive) | > 100 µM (inactive) | > 100 µM (inactive) | > 100 µM (inactive) | > 100 µM (inactive) | > 100 µM (inactive) | > 100 µM (inactive) | > 100 µM (inactive) |  |  |  |  | 
2 | COC(=O)CCCc1ccc2c(c1)CC1(C2)Cc2cc3c(cc2C1)CCCC3 | 29.6 µM (inactive) | 3.8 µM (inactive) | 45.7 µM (inactive) | 22.1 µM (inactive) | 11.6 µM (inactive) |  | 26.7 µM (inactive) | 41.9 µM (inactive) | < 0.01 µM (active) | 24.7 µM (inactive) | 40.5 µM (inactive) |  | 26.1 µM (inactive) | 17.7 µM (inactive) | 37.8 µM (inactive) | > 100 µM (inactive) | 29.9 µM (inactive) | 47.6 µM (inactive) |  | 
3 | COc1ccc(/C=C2\CCC(C)(CN(C)C)C2=O)cc1 (stereo not drawn) | > 100 µM (inactive) | > 100 µM (inactive) | > 100 µM (inactive) | > 100 µM (inactive) | > 100 µM (inactive) | > 100 µM (inactive) | > 100 µM (inactive) | > 100 µM (inactive) | > 10 µM (inactive) | > 100 µM (inactive) | 76.4 µM (inactive) | 6.18 µM (inactive) | > 100 µM (inactive) | 16.3 µM (inactive) | > 100 µM (inactive) |  |  |  | > 100 µM (inactive) | 
4 | O=c1[nH]nc(Cc2ccc([N+](=O)[O-])cc2)[nH]1 | > 100 µM (inactive) | > 100 µM (inactive) | > 100 µM (inactive) | > 100 µM (inactive) | > 100 µM (inactive) | > 100 µM (inactive) | > 100 µM (inactive) | > 100 µM (inactive) | > 100 µM (inactive) | > 100 µM (inactive) | > 100 µM (inactive) | > 100 µM (inactive) |  | > 100 µM (inactive) | > 100 µM (inactive) |  | 75 µM (inactive) | > 100 µM (inactive) | > 100 µM (inactive) | > 100 µM (inactive)
5 | C=C(C)[C@H]1C=C[C@@H](OC(C)=O)[C@@]2(COC(C)=O)[C@H](OC(=O)CCC)[C@H]3[C@@H](OC(C)=O)[C@@H](C)C[C@]3(O)C(=O)[C@@](C)(OC(C)=O)[C@H]12 | 38.7 µM (inactive) | 37.6 µM (inactive) |  | 32.7 µM (inactive) | 33.6 µM (inactive) | 21.2 µM (inactive) | 27.1 µM (inactive) | 67 µM (inactive) | 36.3 µM (inactive) | > 100 µM (inactive) | 33.9 µM (inactive) | 66.2 µM (inactive) | 3.53 µM (inactive) | 56 µM (inactive) |  | 56.9 µM (inactive) | 43.1 µM (inactive) | 42.5 µM (inactive) | 80 µM (inactive) | 
6 | CCCNC(=O)N(C)C(=O)N1N=C(c2ccccc2)C1c1ccccc1 (stereo not drawn) |  | 51.8 µM (inactive) | 64.7 µM (inactive) | 78.9 µM (inactive) | 23.7 µM (inactive) |  | 60 µM (inactive) | > 100 µM (inactive) |  | > 100 µM (inactive) | 89.9 µM (inactive) | > 100 µM (inactive) | 62.4 µM (inactive) | 62.4 µM (inactive) | > 100 µM (inactive) | > 100 µM (inactive) |  | > 100 µM (inactive) | > 100 µM (inactive) | > 100 µM (inactive)
7 | COc1ccc(C2SC(=N)Nc3c2c(C)nn3C(=O)Cc2ccccc2)cc1 (stereo not drawn) | > 100 µM (inactive) | > 100 µM (inactive) | > 100 µM (inactive) | > 100 µM (inactive) | > 100 µM (inactive) | > 100 µM (inactive) | > 100 µM (inactive) | > 100 µM (inactive) | > 100 µM (inactive) |  |  | > 100 µM (inactive) |  | > 100 µM (inactive) | > 100 µM (inactive) | > 100 µM (inactive) | > 100 µM (inactive) |  | > 100 µM (inactive) | > 100 µM (inactive)
8 | NNC(=O)N/N=C1\C(=O)N(c2ccc(Cl)c(Cl)c2)C(=O)C(=O)C1c1nc2ccccc2s1 (stereo not drawn) | > 100 µM (inactive) | > 100 µM (inactive) | > 100 µM (inactive) | > 100 µM (inactive) | 69.3 µM (inactive) | > 100 µM (inactive) | > 100 µM (inactive) | > 100 µM (inactive) | 89.9 µM (inactive) | 38.5 µM (inactive) | > 100 µM (inactive) | > 100 µM (inactive) | > 100 µM (inactive) | > 100 µM (inactive) | > 100 µM (inactive) |  |  |  | > 100 µM (inactive) | 
9 | Cc1nc(O)nc(N/N=C/c2c3ccccc3c(Cl)c3ccccc23)c1C(=O)Nc1ccc(Cl)cc1 | 55.7 µM (inactive) | 65.9 µM (inactive) |  | 63.4 µM (inactive) | 31.3 µM (inactive) | 45.4 µM (inactive) | 44.6 µM (inactive) | 47.5 µM (inactive) | 38.5 µM (inactive) |  | 37.9 µM (inactive) | 92.5 µM (inactive) |  | > 100 µM (inactive) |  | > 100 µM (inactive) |  |  | > 100 µM (inactive) | > 100 µM (inactive)
10 | O=[N+]([O-])c1cccnc1NCC1(CO)CCCC1 | 19.3 µM (inactive) | 26 µM (inactive) | 23.8 µM (inactive) | 35.2 µM (inactive) | 15.6 µM (inactive) | 22.5 µM (inactive) | 18.8 µM (inactive) | 39.6 µM (inactive) | 25.4 µM (inactive) | > 10 µM (inactive) | 16.9 µM (inactive) | 56.4 µM (inactive) | 23.4 µM (inactive) | 21.7 µM (inactive) | 21.6 µM (inactive) |  | 24.5 µM (inactive) | 20 µM (inactive) | 23.2 µM (inactive) | 36 µM (inactive)
11 | O=C1[C@H](O)[C@@H]2C(O)O[C@H]3[C@@H]2N1C[C@H]3[Si](c1ccccc1)(c1ccccc1)c1ccccc1 (stereo partly drawn) | > 100 µM (inactive) | > 100 µM (inactive) | > 100 µM (inactive) | > 100 µM (inactive) | > 100 µM (inactive) | > 100 µM (inactive) | > 100 µM (inactive) | > 100 µM (inactive) | > 100 µM (inactive) | 20.2 µM (inactive) | > 100 µM (inactive) | > 100 µM (inactive) |  |  | > 100 µM (inactive) | > 100 µM (inactive) |  | > 100 µM (inactive) | > 100 µM (inactive) | > 100 µM (inactive)
12 | CSc1nnc(C(C#N)C#N)nn1 | > 100 µM (inactive) | > 100 µM (inactive) | > 100 µM (inactive) | > 100 µM (inactive) | > 100 µM (inactive) | > 100 µM (inactive) | > 100 µM (inactive) | > 100 µM (inactive) | > 100 µM (inactive) | > 100 µM (inactive) | > 100 µM (inactive) | > 100 µM (inactive) | > 100 µM (inactive) | > 100 µM (inactive) | > 100 µM (inactive) |  |  |  |  | 
13 | CCOC(=O)CCC(NC(=O)OCc1ccccc1)C(=O)NC(CCC(=O)OCC)C(=O)NC(CCC(=O)OCC)C(=O)NC(CCC(=O)OCC)C(=O)NC(CCC(=O)OCC)C(=O)OCC (stereo not drawn) | > 100 µM (inactive) | > 100 µM (inactive) | > 100 µM (inactive) | > 100 µM (inactive) | > 100 µM (inactive) | > 100 µM (inactive) |  |  | > 100 µM (inactive) | > 100 µM (inactive) | > 100 µM (inactive) |  |  | > 100 µM (inactive) |  |  | > 100 µM (inactive) | > 100 µM (inactive) | > 100 µM (inactive) | > 100 µM (inactive)
14 | COc1cc2c(c(OC)c1OC)-c1ccc(SC)c(=O)cc1[C@@H](NCc1ccc([N+](=O)[O-])cc1)CC2 | 0.00331 µM (active) | 0.00369 µM (active) | 0.00364 µM (active) | 0.00748 µM (active) | 0.00478 µM (active) | 0.00318 µM (active) | 0.00299 µM (active) | 0.00461 µM (active) | 0.00148 µM (active) | 0.00241 µM (active) | 0.00416 µM (active) | 0.0308 µM (active) | 0.0472 µM (active) | 0.00313 µM (active) | 0.00271 µM (active) |  |  |  | 0.00493 µM (active) | 
15 | O=C1C(=CNc2ccccc2Cl)C(=O)N(c2ccccc2)C(=O)N1c1ccccc1 | > 100 µM (inactive) | > 100 µM (inactive) | > 100 µM (inactive) | > 100 µM (inactive) | > 100 µM (inactive) | > 100 µM (inactive) | > 100 µM (inactive) | 85.1 µM (inactive) |  | > 100 µM (inactive) | > 100 µM (inactive) | > 100 µM (inactive) | > 100 µM (inactive) | > 100 µM (inactive) | > 100 µM (inactive) | > 100 µM (inactive) | 80.4 µM (inactive) | > 100 µM (inactive) |  | 
16 | N=C1OC(c2ccc3c(c2)OCO3)C(NNS(=O)(=O)c2ccccc2)=C1O (stereo not drawn) | > 100 µM (inactive) | > 100 µM (inactive) | > 100 µM (inactive) | > 100 µM (inactive) | > 100 µM (inactive) | > 100 µM (inactive) | > 100 µM (inactive) | > 100 µM (inactive) | 61.2 µM (inactive) | > 100 µM (inactive) | 54.7 µM (inactive) | > 100 µM (inactive) | > 100 µM (inactive) | 48.5 µM (inactive) | > 100 µM (inactive) |  |  |  | > 100 µM (inactive) | 
